The supplement of paper PMC10011410
± gives the standard deviation of the averaged measurements.

Columns and labels:
[1] = system: U-2 OS; experiment: total intracellular glutathione (GSH + GSSG) relative to DMSO (% of control); higher = more glutathione; conditions: 24 h
Summary of the method: (§1)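 In white low-volume 384-well plates, 750 U-2 OS cells per well were treated by pin tool after 24 h, most compounds at 20, 10 and 5 μM with 0.4% DMSO, and incubated for 24 h at 37 °C. Total glutathione and GSSG, or viability, were then read by luminescence using GSH/GSSG-Glo or CellTiter-Glo on separate plates. Values, corrected for background and row/column position, are given relative to vehicle or as a GSH:GSSG ratio.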

[2] = system: U-2 OS; experiment: AUC of culture confluence over time (live-cell imaging) (AUC (confluence % x time)); higher = more confluent culture (less growth inhibition)
Summary of the method: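 Confluence of U-2 OS cells in F-12K medium with 10% FBS was tracked by live-cell imaging. Cells were seeded at 750 per well in 384-well plates and treated 24 h later by pin tool, with most compounds at 20, 10 and 5 μM and 0.2% DMSO. Cells were kept at 37 °C and imaged every 4 h for up to 60 h on an Incucyte S3 with a 10x objective. The value is the area under the confluence-versus-time curve.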

[3] = system: U-2 OS; experiment: cell viability (CellTiter-Glo) relative to DMSO (% of control); higher = more viable; conditions: 24 h
Summary of the method: as §1

[4] = system: U-2 OS; experiment: cell painting activity score (Mahalanobis distance from DMSO wells); higher = stronger morphological phenotype; conditions: 24 h
Summary of the method: (§2)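 In this cell painting assay, roughly 1,500 U-2 OS cells per well in 384-well plates were pin-tool treated at 37 °C for 24 h, typically at six 2-fold steps from 20 μM down to 625 nM. Cells were stained with MitoTracker, concanavalin A, phalloidin, wheat germ agglutinin, Hoechst and SYTO 14, imaged on an Opera Phenix, and analysed in CellProfiler with normalization to same-plate DMSO cells. Reported values are means of four replicate plates, with the activity score defined as the Mahalanobis distance from DMSO wells and cell count defined relative to DMSO wells.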

[5] = system: U-2 OS; experiment: relative cell count vs DMSO (cell painting) (fraction of DMSO control); higher = more cells remaining (less cytotoxic); conditions: 24 h
Summary of the method: as §2

[6] = system: U-2 OS; experiment: intracellular GSH:GSSG ratio (calculated); higher = more reduced glutathione pool; conditions: 24 h
Summary of the method: as §1

SMILES	total intracellular glutathione ([1]; 5 µM)	total intracellular glutathione ([1]; 10 µM)	total intracellular glutathione ([1]; 20 µM)	AUC of culture confluence over time ([2]; 5 µM)	AUC of culture confluence over time ([2]; 10 µM)	AUC of culture confluence over time ([2]; 20 µM)	cell viability ([3]; 5 µM)	cell viability ([3]; 10 µM)	cell viability ([3]; 20 µM)	cell painting activity score ([4]; 0.625 µM)	cell painting activity score ([4]; 1.25 µM)	cell painting activity score ([4]; 2.5 µM)	cell painting activity score ([4]; 5 µM)	cell painting activity score ([4]; 10 µM)	cell painting activity score ([4]; 20 µM)	relative cell count ([5]; 0.625 µM)	relative cell count ([5]; 1.25 µM)	relative cell count ([5]; 2.5 µM)	relative cell count ([5]; 5 µM)	relative cell count ([5]; 10 µM)	relative cell count ([5]; 20 µM)	intracellular GSH:GSSG ratio ([6]; 5 µM)	intracellular GSH:GSSG ratio ([6]; 10 µM)	intracellular GSH:GSSG ratio ([6]; 20 µM)	total intracellular glutathione ([1]; 40 µM)	total intracellular glutathione ([1]; 80 µM)	AUC of culture confluence over time ([2]; 40 µM)	AUC of culture confluence over time ([2]; 80 µM)	cell viability ([3]; 40 µM)	cell viability ([3]; 80 µM)	cell painting activity score ([4]; 40 µM)	cell painting activity score ([4]; 80 µM)	relative cell count ([5]; 40 µM)	relative cell count ([5]; 80 µM)	intracellular GSH:GSSG ratio ([6]; 40 µM)	intracellular GSH:GSSG ratio ([6]; 80 µM)	AUC of culture confluence over time ([2]; 0.625 µM)	AUC of culture confluence over time ([2]; 1.25 µM)	AUC of culture confluence over time ([2]; 2.5 µM)
CC1(C)CC[C@]2(C(=O)n3ccnc3)CC[C@]3(C)[C@H](C(=O)C=C4[C@@]5(C)C=C(C#N)C(=O)C(C)(C)[C@@H]5CC[C@]43C)[C@@H]2C1	36.9 ± 4.2	38 ± 6.2	38.6 ± 5.8	16	14.8	13.9	43.9 ± 1.6	43.8 ± 5.2	94.4 ± 8.6	17.6	23.5	35.7	33.9	32	26.6	0.329	0.22	0.121	0.0924	0.0552	0.0644	3.45	4.45	0.635															
O=[N+]([O-])c1c(Cl)cc(Cl)c2nsnc12	116 ± 6.5	81.7 ± 6	48.7 ± 3.5	19.8	10.2	8	88.3 ± 13	52.4 ± 10	19.5 ± 8.6	5.1	10.7	14.1	17.8	25.1	24.4	0.967	0.626	0.447	0.222	0.02	0.0161	13.9	6.83	2.56															
O=C(Nc1nc(-c2ccccc2)ns1)c1cccs1	99.8 ± 3.8	98.1 ± 5.4	103 ± 7.2	42.6	48.1	43.5	95.9 ± 3.4	93.5 ± 3.8	97.5 ± 1.8	4.56	4.47	2.86	3.95	3.58	4.52	0.94	0.902	0.915	0.929	0.917	0.914	16.9	13	23.8															
Cl.Cl.O=C(O)Cn1nnc(-c2ccc(CN(CCCCOc3ccc(CN4CCCC4)cc3)CCc3ccccc3)cc2)n1	99.4 ± 2.1	97 ± 3.3	95.5 ± 4.5	48.1	49	47.5	96.5 ± 5.3	100 ± 3.5	98.8 ± 6.4	4.83	5.3	7.08	6.29	6.41	11.1	1.2	1.1	1.12	1.13	1.14	1.01	20.2	19.8	15.4	96.7 ± 2.5	72.7 ± 5.7	19.9	12.3	88.9 ± 11	30.9 ± 15	11.5	32	0.376	0.0195	14.3	14			
Cc1onc(C(=O)N2CCN(C(c3ccc(Cl)cc3)c3ccc(Cl)cc3)CC2)c1[N+](=O)[O-]	107.3 ± 0.95	110 ± 4.7	107 ± 4.3	31.1	29.2	28.8	88.8 ± 4.4	92.4 ± 4.1	84.1 ± 6.2	8.18	8.49	10.6	9.26	11.2	11.3	0.903	0.945	0.883	0.853	0.9	0.81	21	19.2	16.3															
CC(C)C[C@H](NC(=O)[C@H](Cc1ccccc1)NC(=O)c1cnccn1)B(O)O	6.2 ± 0.76	6.01 ± 0.4	6.63 ± 0.68	16.9	15.6	15.1	6.79 ± 0.82	7.67 ± 1.1	7.65 ± 1	28.4	29.8	29.3	30.7	31	29.8	0.186	0.172	0.149	0.129	0.131	0.125	2.45	1.97	1.1															
COc1cc2c(c(OC)c1OC)-c1ccc(OC)c(=O)cc1[C@@H](NC(C)=O)CC2	59.7 ± 3.7	58.1 ± 4.3	60.6 ± 3.2	20.1	19.7	22.8 ± 0.82	49.1 ± 4	52.8 ± 6.9	57.8 ± 6.9	22.4 ± 2.2	22 ± 1.8	20.7 ± 1.9	20.3 ± 2.4	21.3 ± 1.8	21 ± 1.7	0.215 ± 0.03	0.215 ± 0.021	0.213 ± 0.02	0.209 ± 0.021	0.205 ± 0.017	0.197 ± 0.018	3	2.46	2.47													21.6	21.5	21
CCCCCCCCCCCCCCCc1cccc(O)c1C(=O)O	105 ± 3.3	94.7 ± 4.2	98.8 ± 4.7	42.7	53.4	52.9	102 ± 3	106 ± 5.8	100 ± 2.9	3.17	3.13	3.54	3.63	4.51	3.58	1.09	1.09	1.13	1.05	1.01	1.05	19	18.3	24.7	95.5 ± 3.8	96.7 ± 3.9	51.2	40.9	104 ± 4.9	101 ± 5.3	12.9	21	0.326	0.342	19.7	18.1			
COC[C@H]1OC(=O)c2coc3c2[C@@]1(C)C1=C(C3=O)[C@@H]2CCC(=O)[C@@]2(C)C[C@H]1OC(C)=O	85.3 ± 3.2	82.6 ± 4	76.8 ± 3.8	49.5	38.5	28.4	83.6 ± 1.5	76 ± 2.8	69.3 ± 1.1	7.82 ± 1.2	8.77 ± 1.2	8.96 ± 1.1	9.66 ± 1	10.4 ± 0.73	11.2 ± 0.66	0.905 ± 0.054	0.905 ± 0.038	0.882 ± 0.07	0.873 ± 0.059	0.837 ± 0.065	0.785 ± 0.058	26.3	27.5	21.8													57.9	56.1	56.6
